US4839371A, “3-aralkyl-2-mercaptoyridines as dopamine-β-hydroxylase inhibitors” (SmithKline Beckman Corporation, priority 1987, dated 1989)
Where two headings read alike, the source gives them in different places.

Assays:
[1] = test system: DBH; conditions: cited from earlier work
[2] = target: T1, DBH (Bos taurus, UniProt P15101); assay: in vitro DBH inhibition (conversion of tyramine to octopamine, spectrophotometric at 330 nm)
T1 sequence (P15101 1-610): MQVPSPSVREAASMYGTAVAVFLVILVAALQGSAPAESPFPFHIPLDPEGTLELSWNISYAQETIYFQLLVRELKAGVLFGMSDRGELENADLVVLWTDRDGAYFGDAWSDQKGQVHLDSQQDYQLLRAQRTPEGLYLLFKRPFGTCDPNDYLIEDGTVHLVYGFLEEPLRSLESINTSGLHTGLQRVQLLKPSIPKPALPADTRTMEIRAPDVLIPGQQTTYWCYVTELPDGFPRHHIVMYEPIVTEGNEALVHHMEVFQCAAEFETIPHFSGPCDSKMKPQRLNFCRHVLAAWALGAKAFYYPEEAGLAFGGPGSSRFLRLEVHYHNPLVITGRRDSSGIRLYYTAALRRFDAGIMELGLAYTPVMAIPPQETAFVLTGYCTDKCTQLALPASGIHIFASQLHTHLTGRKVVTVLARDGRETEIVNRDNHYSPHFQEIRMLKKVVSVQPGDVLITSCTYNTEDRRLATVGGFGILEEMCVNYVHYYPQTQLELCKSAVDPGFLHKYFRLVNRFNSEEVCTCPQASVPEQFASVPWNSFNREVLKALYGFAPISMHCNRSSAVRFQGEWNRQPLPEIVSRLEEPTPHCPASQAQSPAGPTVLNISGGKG

[3] = test system: spontaneously hypertensive rats; assay: mean arterial blood pressure in spontaneously hypertensive rats; assay type: in vivo; conditions: 50 mg/kg intraperitoneally
Excerpt: Maximal blood pressure reduction was approximately 50 to 55 mm Hg.

[4] = patients, Friedman et al., Psychosomatic Med. 40, 107 (1978), significance uncertain

IC50 [2]	Compound	lowered DBH levels in treated patients [1, 4]	also measured
	C[C@](N)(Cc1ccc(O)c(O)c1)C(=O)O [alpha-methyl-DOPA]	lowered DBH levels	
500 µM	Fc1cccc(Cc2cccnc2S)c1 [3-(3-Fluorobenzyl)-2-mercaptopyridine]		
	CC(C)NCC(O)COc1cccc2ccccc12 (stereo not shown) [propranolol]		lowered DBH levels in treated patients ([1]; human, in vivo): not
	COC(=O)[C@H]1[C@H]2C[C@@H]3c4[nH]c5cc(OC)ccc5c4CCN3C[C@H]2C[C@@H](OC(=O)c2cc(OC)c(OC)c(OC)c2)[C@@H]1OC [reserpine]	lowered DBH levels	
134 µM	Fc1cc(F)cc(Cc2cccnc2S)c1		blood pressure reduction compared to vehicle-treated controls ([3]; monitored for 260 minutes): significant blood pressure reductions; time after treatment to significant blood pressure reductions ([3]; within approximately): ≤ 30 min
